Paper PMC11091117, “A fluorescently-tagged tick kinin neuropeptide triggers peristalsis and labels tick midgut muscles” (Scientific Reports, 2024)
“Also recorded” adds a separate entry of the source.

Columns and labels:
[1] = tested on: tick kinin receptor in midgut muscles; assay: Fluorescent labeling of live midgut ex vivo, confocal microscopy; type: binding, Rhipicephalus sanguineus; conditions: 10 µM labeled peptide, 1 min
Excerpt: Three peptides were used in this study. These included: 1) the ligand for the endogenous tick kinin receptor from Rhipicephalus sanguineus, Rhisa-kinin 8 peptide of sequence GTGEDQAFSPWGamide (Rhisa-K-8; RK8; of identical sequence to Rhimi-K-8 in Rhipicephalus microplus)[48], 2) the same peptide but fluorescently labeled at the N-terminus with tetramethylrhodamine (TMR) a red fluorescent dye, designated TMR-Rhisa-K-8 (TMR-RK8), and 3) a labeled peptide synthesized with the scrambled sequence of the kinin ligand, designated TMR-Scrambled. The sequence of TMR-RK8 was TMR-C-GTGEDQAFSPWGamide). The TMR-Scrambled kinin (TMR-C-GTQWGPGFEADSamide) served as a negative control for tissue labeling. All peptides were custom-synthesized and purchased from GenScript (Piscataway, NJ, USA) with a purity of ≥ 95% and the cysteine in bold in both sequences was added to attach the label. Experiments were replicated with independently synthesized batches (4 mg each) of labeled and unlabeled peptides, for reproducibility. Unlabeled RK8 was used as a competitive ligand to verify target-specific binding of the labeled TMR-RK8 (see Ligand Competition Assay). For cell assays, the peptide stock solutions (100 µM) were made in 1% dimethyl sulfoxide (DMSO) in Hank’s balanced salt solution (HBSS, Thermo Fisher, Waltham, USA). For fluorescent cell labeling, peptide working solutions (10 µM) were prepared in HBSS from stock solutions. For assays on the midgut, peptides were solubilized and diluted in a tick physiological saline consisting of 140 mM NaCl, 5 mM KCl, 1 mM MgCl2, 5 mM CaCl2, 4 mM NaHCO3, and 5 mM HEPES, pH 7.2[49].
(§1) Individual female ticks were immobilized on a Petri dish filled with wax by submerging their legs in melted wax heated with a soldering pencil (Electronic Control Soldering Station EC 1000, Weller, Apex, North Carolina, USA). Females were dissected under physiological saline following the protocol described by Tidwell et al.[51]. The tick was cut along the edge of the scutum/alloscutum using a stainless steel #12 scalpel blade (Integra Miltex, York, PA, USA), after which the scutum was removed with a pair of fine forceps. To expose the midgut for removal, the tracheae, Malpighian tubules, ovaries, rectal sac, and synganglion were removed with fine forceps in that order. The midgut was then carefully removed and placed into 200 µL of fresh tick saline (See Reagents and Peptides) on a single gasketed incubation chamber (500 µL, Size 22 × 40 mm, Electron Microscopy Sciences, Hatfield, PA). The midguts were then rinsed three times with the physiological tick saline for subsequent fluorescent labeling or activity experiments.
To determine the location of the tick kinin receptor in the midgut of ticks, a commercially synthesized Rhisa-kinin peptide 8[52] conjugated with a stable, red fluorophore (TMR-RK8) or a similarly labeled peptide of scrambled sequence (TMR-Scrambled) were applied to freshly dissected midguts ex vivo. For this, midguts of unfed adult females were incubated in ice-cold saline for 10 min. The saline was removed before incubation in 200 µL of 4’,6-diamidino-2-phenylindole dihydrochloride (DAPI, Sigma, 1 µg/mL in saline) for 1 min and rinsed with saline (200 µL) once. After saline removal, the midgut was incubated for 1 min with 200 µL of 10 µM of either TMR-Scrambled kinin or TMR-RK8, then the labeled peptide solution was removed by pipette and the midgut was rinsed twice with 200 µL saline. […]

tick midgut = assay: Tick midgut contraction assay with EthoVision video analysis; set-up: species or system Rhipicephalus sanguineus
Excerpt: as §1
Midguts were dissected from immobilized female ticks under tick saline, as described under the Midgut Dissection. Ten different midguts were used for each of the two treatments, and ticks were of the same age and batch and had been maintained under the same conditions. Dissected midguts were placed individually into 200 µL of tick saline for 10 min at 28 °C on a gasketed glass coverslip (500 µL, Size 22 × 40 mm) serving as incubation chamber. […] After the final wash and removal of saline, 200 µL of saline were added, and a microscopy coverslip (24 × 60 mm, VWR, Radnor, PA) was placed over the gasketed portion of the incubation chamber, which height (0.5 mm) fits to prevent the midgut from floating, but still allows midgut peristalsis. The midguts were observed and filmed under a dissecting microscope (Olympus SZ61, Japan) equipped with an Infinity 5 camera (Teledyne Lumenera, Ottawa, ON, Canada). All videos were recorded for 1 min with the INFINITY ANALYZE 7 software (Teledyne Lumenera) at 30 frames/second with a 2464 × 2056 resolution. The field of view in all videos recorded represents 4 × 3.5 mm to capture the entire tick midguts under saline. All video files in Windows Media Video (.wmv) format obtained from the Infinity Analyze 7 software were converted to the MP4 format using CloudConvert (cloudconvert.com, Lunaweb, Munich, Germany) for analyses with the EthoVision XT 17 software (Noldus Information Technology, Wageningen, The Netherlands).
We used the EthoVision 17 XT software to quantify the “activity” (pixel change) of the midguts from the videos recorded. This software defines activity as the percentage of pixels that have changed in the entire defined arena between the current image and previous image. The videos are recorded in 2464 × 2056 resolution and the arena is set to be the entire video screen. Video files were uploaded into the program and analyzed starting from time zero to the end of the 60 s video. Detection settings for activity included the activity threshold which was set to 5 to achieve zero detection when the midgut was immobile. Although the video captured 30 frames (images) per s, for the video analysis we chose a “sample rate” of 7 samples /s, with sample rate being the number of images from the video the EthoVision program analyzes per second. To calculate activity, each pixel of the video image was compared from one image to the next, and the proportion of pixel changes was calculated by dividing the number of pixels changed from one image to the next by the total number of pixels in the image. Care was given for the midgut to occupy most of the arena, as the activity analyses will reflect the midgut movement as a proportion of the total arena. Midgut activity is observed as pixel changes, which are represented by the red-colored pixels in the S4 video. The mean pixel change per midgut was then determined by averaging the pixel changes from all samples within the recording period. […]

[2] = tested on: vector-only (V/O) CHO-K1 cells; assay: Confocal visualization on live vector-only cells with fluorescently labeled kinin peptide; type: binding; conditions: 10 µM labeled peptide, 1 min, HBSS, confocal Leica SP8
Excerpt: Three peptides were used in this study. These included: 1) the ligand for the endogenous tick kinin receptor from Rhipicephalus sanguineus, Rhisa-kinin 8 peptide of sequence GTGEDQAFSPWGamide (Rhisa-K-8; RK8; of identical sequence to Rhimi-K-8 in Rhipicephalus microplus)[48], 2) the same peptide but fluorescently labeled at the N-terminus with tetramethylrhodamine (TMR) a red fluorescent dye, designated TMR-Rhisa-K-8 (TMR-RK8), and 3) a labeled peptide synthesized with the scrambled sequence of the kinin ligand, designated TMR-Scrambled. The sequence of TMR-RK8 was TMR-C-GTGEDQAFSPWGamide). The TMR-Scrambled kinin (TMR-C-GTQWGPGFEADSamide) served as a negative control for tissue labeling. […]
The BMLK3 and V/O cells (5000–10,000 cells) were seeded separately in 200 µL selective media onto the two chambers of the cover glass (Lab-Tek Chambered Coverglass, 4.2 cm^2 area, #1.0 German borosilicate glass, sterile, Cat # 155,380, Thermo Fisher Scientific Inc., Walthams, MA) and grown in the incubator overnight at 37 °C and 5% CO2. The next day, cells would be ready for fluorescent labeling: the selective media was replaced with 200 µL HBSS to rinse the cells. […] Images were analyzed and computer-colored using Fiji/ImageJ (National Institutes of Health, Bethesda, MD). […]

## TMR-C-GTQWGPGFEADSamide [TMR-Scrambled]
[1]; midguts ex vivo, Z-slices under the surface
  non-specific labeling below midgut surface (in words): non-specific aggregation in lipid vesicles beneath the midgut surface; also recorded: non-specific labeling observed in lipid vesicles inside the midgut
[1]; tick saline pH 7.2, midguts of unfed females ex vivo, DAPI and Alexa 488-phalloidin, confocal 20X/40X
  labeling of midgut surface muscles (in words): did not significantly bind to the surface of the tick midgut; also recorded: did not show specific binding to the midgut of ticks; also recorded: specific muscle surface staining was not observed; also recorded: No signal; also recorded: grid-like fluorescent pattern was not observed
Tick midgut; 1 µM TMR-Scrambled, after 10 min of exposure, 4X speed
  midgut contractions, S5 Video (in words): did not induce contractions
Tick midgut; 10 µM, 1 min, 28 °C, midguts of unfed females ex vivo, video recorded 1 min
  midgut peristalsis/contractions (in words): did not elicit peristalsis; also recorded: low to imperceptible activity; also recorded: did not display significant activity
Tick midgut; 10 µM, 1 min, rinsed twice, 28 °C, tick saline, 60 s video, 7 samples/s, EthoVision XT 17, activity threshold 5, N = 10 midguts
  mean activity (mean pixel change, percentage of pixels changed in arena): less than 0.1%
[2]
  labeling of vector-only cells (in words): not labeled by either peptide
